One may read the AUC(0-inf) as the area under the concentration-time curve extrapolated to infinity. Low readings indicate low exposure, high ones high exposure. The term half-life denotes the time needed for the level to fall by half in the phase considered. Read a low half-life as fast loss. As usually defined, the GI50 is the concentration at which growth is held to half of that of the control. A high value points to less potent growth inhibition. Broadly, the Tmax is the time from dosing to the highest level. Broadly, the IC50 is the concentration that gives 50% inhibition. As usually defined, the efflux ratio is a quotient of directional permeabilities that is used to spot active efflux. Usually Cmax stands for the peak of the concentration-time curve. By logD is commonly meant the decadic logarithm of the distribution of all forms, ionised or not, between an organic phase and buffer at a given pH. High values mean a more lipophilic compound, low ones a more hydrophilic compound.

The record followed here is ChEMBL document CHEMBL4840343, “Fragment-based lead discovery of indazole-based compounds as AXL kinase inhibitors” (Bioorg Med Chem, 2021).

Series [1] is described as follows: AUC (0 to infinity) in mouse at 5 mg/kg, po. Format: ADME, organism-based. Also on record: route oral, time infinity, dose 5 mg/kg. Conditions: in vivo.
Series [2] addresses MAP kinase-interacting serine/threonine-protein kinase 2 (Homo sapiens) (UniProt Q9HBH9). Briefly: Inhibition of MKNK2 (unknown origin).
Series [3] in a line: Half life in mouse at 5 mg/kg, po. The class given is ADME, organism-based. Particulars: in vivo.
Another series concerns SK-OV-3. Briefly: Antiproliferative activity against human SK-OV-3 cells as reduction in cell growth measured after 72 hrs by Celltiter-Glo luminescent assay. Format: functional. (Cellular ATP, detected with luciferase, serves as a proxy for viable cell number.)
A short description of series [4]: Thermodynamic solubility of compound at pH 7.4. The class given is physicochemical. Particulars: buffer, read-out: Therm_solubility.
Series [5] can be described thus: Tmax in mouse at 5 mg/kg, po. The class given is ADME, organism-based. Conditions: in vivo.
For series [6], the target named is Tyrosine-protein kinase receptor UFO (Homo sapiens) (UniProt P30530). Briefly: Inhibition of Axl in human SK-OV-3 cells assessed as reduction in phosphorylated Axl level measured after 1 hr by Western blot analysis. Format: cell-based. Conditions: dose 1-10 µM. For orientation: Immunoblotting shows a protein as a band on a membrane.
The nature of series [7]: Intrinsic clearance in mouse liver microsomes. Format: ADME, Microsome. Conditions: read-out: CLH. A general note: Microsomes from liver hold many membrane-bound enzymes, among them those of drug oxidation.
Series [8] is described as follows: Permeability across apical to basolateral side in human Caco-2 cells. Format: ADME, cell-based. Conditions: read-out: permeability.
The target of series [9] is T1, Tyrosine-protein kinase receptor UFO (Homo sapiens, UniProt P30530).
T1 sequence (P30530 whole entry): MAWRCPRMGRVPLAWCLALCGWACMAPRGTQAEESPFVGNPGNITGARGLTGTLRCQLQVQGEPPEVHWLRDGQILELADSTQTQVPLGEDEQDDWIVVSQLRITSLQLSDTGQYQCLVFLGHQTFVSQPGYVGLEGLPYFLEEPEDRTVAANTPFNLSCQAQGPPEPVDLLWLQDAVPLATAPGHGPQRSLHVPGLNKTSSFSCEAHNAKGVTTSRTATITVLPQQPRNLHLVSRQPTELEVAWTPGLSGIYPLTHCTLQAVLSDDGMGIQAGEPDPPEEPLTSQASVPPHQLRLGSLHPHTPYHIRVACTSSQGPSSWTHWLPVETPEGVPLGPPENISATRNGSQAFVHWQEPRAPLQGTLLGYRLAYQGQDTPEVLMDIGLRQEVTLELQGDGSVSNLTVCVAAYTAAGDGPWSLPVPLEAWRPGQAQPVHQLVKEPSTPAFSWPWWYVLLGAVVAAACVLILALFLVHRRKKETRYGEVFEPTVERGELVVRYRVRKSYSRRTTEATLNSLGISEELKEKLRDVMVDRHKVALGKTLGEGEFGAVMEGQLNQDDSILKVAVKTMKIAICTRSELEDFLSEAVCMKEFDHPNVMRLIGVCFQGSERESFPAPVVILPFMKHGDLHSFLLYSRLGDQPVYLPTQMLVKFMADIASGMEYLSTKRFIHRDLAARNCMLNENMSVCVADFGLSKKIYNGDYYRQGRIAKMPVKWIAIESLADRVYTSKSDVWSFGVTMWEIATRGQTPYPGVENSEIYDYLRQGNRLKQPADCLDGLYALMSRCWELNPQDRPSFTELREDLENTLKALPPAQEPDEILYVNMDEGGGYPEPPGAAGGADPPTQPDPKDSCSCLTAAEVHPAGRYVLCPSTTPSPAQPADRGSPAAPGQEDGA
Briefly: Inhibition of Axl (unknown origin) using 5'FAM labeled KKKKEEIYFFF-NH2 peptide as substrate incubated for 1.5 hrs.

For series [10], the target named is Receptor-type tyrosine-protein kinase FLT3 (Homo sapiens) (UniProt P36888). Briefly: Inhibition of FLT3 (unknown origin).
Receptor-type tyrosine-protein kinase FLT3 (Homo sapiens), sequence (P36888 whole entry): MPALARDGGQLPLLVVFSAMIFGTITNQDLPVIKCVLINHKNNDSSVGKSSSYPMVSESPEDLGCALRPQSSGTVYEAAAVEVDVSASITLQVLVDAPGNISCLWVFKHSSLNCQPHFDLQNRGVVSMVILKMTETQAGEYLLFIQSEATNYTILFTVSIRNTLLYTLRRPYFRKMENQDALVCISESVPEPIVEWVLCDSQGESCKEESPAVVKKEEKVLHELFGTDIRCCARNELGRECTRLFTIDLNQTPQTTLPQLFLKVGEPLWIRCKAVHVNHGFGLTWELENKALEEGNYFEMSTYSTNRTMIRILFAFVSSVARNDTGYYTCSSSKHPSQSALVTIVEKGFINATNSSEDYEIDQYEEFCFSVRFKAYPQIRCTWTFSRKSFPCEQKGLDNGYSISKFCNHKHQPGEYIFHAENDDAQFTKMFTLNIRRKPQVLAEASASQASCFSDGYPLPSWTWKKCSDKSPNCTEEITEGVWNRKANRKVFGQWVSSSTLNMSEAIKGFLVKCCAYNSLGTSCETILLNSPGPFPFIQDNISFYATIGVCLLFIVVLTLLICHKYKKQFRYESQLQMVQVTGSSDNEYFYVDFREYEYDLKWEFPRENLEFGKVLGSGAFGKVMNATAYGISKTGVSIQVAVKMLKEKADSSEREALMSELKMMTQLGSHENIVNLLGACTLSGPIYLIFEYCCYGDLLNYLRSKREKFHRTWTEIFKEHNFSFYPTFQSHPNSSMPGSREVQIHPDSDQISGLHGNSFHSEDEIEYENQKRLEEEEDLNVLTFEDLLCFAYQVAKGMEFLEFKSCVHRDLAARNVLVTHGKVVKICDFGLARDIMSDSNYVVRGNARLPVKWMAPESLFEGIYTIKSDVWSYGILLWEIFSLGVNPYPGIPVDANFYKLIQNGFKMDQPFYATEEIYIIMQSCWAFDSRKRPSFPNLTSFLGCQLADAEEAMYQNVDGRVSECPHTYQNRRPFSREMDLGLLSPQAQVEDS
A short description of series [11]: Permeability across basolateral to apical side in human Caco-2 cells. Conditions: read-out: permeability. The class given is ADME, cell-based.
Series [12] in a line: Efflux ratio of permeability in human Caco-2 cells. Format: ADME, cell-based.
For series [13], the target named is Tyrosine-protein kinase receptor UFO (Homo sapiens) (UniProt P30530). Briefly: Inhibition of Axl in human SK-OV-3 cells assessed as reduction in phosphorylated ERK1/2 level at 1 to 10 uM measured after 1 hr by Western blot analysis. The class given is cell-based. Conditions: dose 1-10 µM.
Series [14] deals with T1, Tyrosine-protein kinase receptor UFO. Briefly: Displacement of K5 tracer from Axl (unknown origin) expressed in human HEK293 cells cotransfected with NanoLuc measured after 2 hrs by NanoBRET assay. The class given is cell-based.
A short description of series [15]: Cmax in mouse at 5 mg/kg, po. The class given is ADME, organism-based. Also on record: route oral, dose 5 mg/kg. Particulars: in vivo.
Series [16] in a line: Intrinsic clearance in human liver microsomes. Format: ADME, Microsome. Conditions: read-out: CLH.
A short description of series [17]: Distribution coefficient, logD of compound at pH 7.4. Format: physicochemical. Particulars: octanol/water.
For series [18], the target named is Proto-oncogene tyrosine-protein kinase receptor Ret (Homo sapiens) (UniProt P07949). Briefly: Inhibition of RET (unknown origin).
Proto-oncogene tyrosine-protein kinase receptor Ret (Homo sapiens), sequence (P07949 whole entry): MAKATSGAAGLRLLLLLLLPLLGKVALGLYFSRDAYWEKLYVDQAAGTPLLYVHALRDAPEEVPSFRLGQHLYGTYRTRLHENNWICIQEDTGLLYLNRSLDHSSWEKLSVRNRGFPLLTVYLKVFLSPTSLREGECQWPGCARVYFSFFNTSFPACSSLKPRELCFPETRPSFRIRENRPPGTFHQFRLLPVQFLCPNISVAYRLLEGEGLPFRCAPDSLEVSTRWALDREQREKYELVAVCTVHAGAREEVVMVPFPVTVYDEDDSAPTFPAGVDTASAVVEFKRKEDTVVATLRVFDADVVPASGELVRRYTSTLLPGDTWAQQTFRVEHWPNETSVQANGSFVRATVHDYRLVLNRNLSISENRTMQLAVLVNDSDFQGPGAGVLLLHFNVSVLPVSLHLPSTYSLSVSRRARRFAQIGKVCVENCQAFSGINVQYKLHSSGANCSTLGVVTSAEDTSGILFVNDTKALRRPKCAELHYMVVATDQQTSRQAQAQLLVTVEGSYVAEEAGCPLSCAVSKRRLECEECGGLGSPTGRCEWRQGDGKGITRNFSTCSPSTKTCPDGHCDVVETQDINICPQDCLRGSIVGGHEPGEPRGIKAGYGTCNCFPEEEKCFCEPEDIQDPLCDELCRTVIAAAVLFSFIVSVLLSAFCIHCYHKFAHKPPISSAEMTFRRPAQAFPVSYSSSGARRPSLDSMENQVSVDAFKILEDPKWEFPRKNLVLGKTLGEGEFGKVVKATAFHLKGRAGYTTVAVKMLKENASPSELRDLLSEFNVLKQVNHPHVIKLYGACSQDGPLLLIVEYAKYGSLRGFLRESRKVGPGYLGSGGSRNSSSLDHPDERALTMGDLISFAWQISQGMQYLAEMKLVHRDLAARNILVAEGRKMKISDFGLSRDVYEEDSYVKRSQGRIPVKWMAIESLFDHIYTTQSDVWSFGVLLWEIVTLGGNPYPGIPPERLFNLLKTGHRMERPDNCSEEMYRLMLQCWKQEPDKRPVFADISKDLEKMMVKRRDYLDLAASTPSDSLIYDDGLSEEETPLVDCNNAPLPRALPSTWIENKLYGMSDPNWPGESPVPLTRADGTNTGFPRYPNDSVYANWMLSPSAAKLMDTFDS

Converted amounts (≈) assume the structure as drawn. The source made the active and inactive calls.

MAP kinase-interacting serine/threonine-protein kinase 2 (Homo sapiens), sequence (Q9HBH9 whole entry, looked up): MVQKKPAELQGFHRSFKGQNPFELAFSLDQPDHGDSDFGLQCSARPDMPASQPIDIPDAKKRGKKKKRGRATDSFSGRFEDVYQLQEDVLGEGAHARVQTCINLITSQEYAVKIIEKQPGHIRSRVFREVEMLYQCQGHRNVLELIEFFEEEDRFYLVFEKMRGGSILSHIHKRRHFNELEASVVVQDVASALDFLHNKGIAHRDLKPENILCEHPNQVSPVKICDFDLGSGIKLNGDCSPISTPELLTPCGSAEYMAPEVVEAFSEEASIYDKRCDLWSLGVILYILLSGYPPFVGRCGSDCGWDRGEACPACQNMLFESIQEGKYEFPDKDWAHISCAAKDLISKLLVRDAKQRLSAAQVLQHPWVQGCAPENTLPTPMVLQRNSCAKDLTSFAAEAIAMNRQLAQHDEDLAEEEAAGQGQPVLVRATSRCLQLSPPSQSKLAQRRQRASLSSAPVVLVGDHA

As for `COc1ccc(-n2cc(-c3n[nH]c4cc(Cl)c(N[C@@H]5CCN(C6COC6)C5)cc34)cn2)cc1`, the area under the curve AUC(0-inf) in [1] was 1620 ng·h/mL. Further, the inhibition result in series [2], in [10], in [13] and in series [18] was “Active” each time. In addition, in series [3], the half-life is 2.46 h. In addition, in the series with SK-OV-3, the GI50 worked out at 1.02 µM. Moreover, the solubility thermodynamic in [4] came out at 1.84 µg/mL (≈ 3.96 µM). Further, the Tmax in series [5] turned out to be 0.25 h. In series [6], the inhibition entry was “Dose-Dependent Effect”. The microsomal CLint in series [7] was 44.8 µL/min/mg; in series [16] it was 129 µL/min/mg. In addition, the Papp A→B in [8] came to 15.2 ×10⁻⁶ cm/s. The IC50 in [9] amounted to 41.5 µM; in series [14], 11.4 µM. Also, the Papp B→A in series [11] turned out to be 8.41 ×10⁻⁶ cm/s. In addition, the efflux ratio in series [12] came to 0.55. Further, the Cmax in [15] came out at 460 ng/mL. This molecule also had a logD in [17] of 4.75.
